Changes are numbered by the printed parent chain. Names and notes keep the numbering of the source. Like-named read-outs stand apart in the source and are kept apart here. Each block holds one molecule with its values, some of them ahead of it. Residues, ends and D or L forms follow the SMILES beside them. No end group written: not given here. *: point of attachment. Cbz = O=C(OCc1ccccc1)*
What was measured:
^GFPHtt^ex1Q74 = assay: GFPHttex1Q74 aggregation in transfected HEK293 cells (fluorescent/confocal microscopy, western blot, filter trap assay); format: cell-based, human; details: for ability of SRCP1 mutant to suppress GFPHttex1Q74 aggregation: HEK293, 48 hours post-transfection, western blot and fluorescent microscopy; for ability of SRCP1 point mutant to suppress GFPHttex1Q74 aggregation: HEK293, fluorescence microscopy
Method: Transfections were performed with Lipofectamine 2000 (Invitrogen by ThermoFisher Scientific) and adapted from the manufacturer's instructions. Briefly, cells were plated on either 12-well or 6-well plates and transfected at 50-70% confluency. For 12-well transfections, 0.833 μg of DNA per well was mixed with 50 μl of OptiMEM (Gibco by Life Technologies) media and incubated for 5 minutes at room temperature. Lipofectamine 2000 in a 2:1, μl of lipofectamine: μg DNA ratio was mixed with 50 μl of OptiMEM media and incubated for 5 minutes at room temperature. DNA and Lipofectamine were mixed and incubated for 15 minutes at room temperature. Fresh media was added to cells prior to the addition of DNA and lipofectamine. For 6-well transfections, the same protocol is followed except that 1.25 μg of DNA per well and 100 μl of OptiMEM for dilution was used. Media was changed 24 hours post-transfection and cells were harvested 48 hours post-transfection. Prior to harvesting, HEK293 cells were washed three times with ice-cold 1×PBS. Samples were then lysed with either 150 μl of ice-cold NETN (with protease inhibitor) or 1× Laemmli Buffer and sonicated twice for 5-8 seconds.
(§1) For proteasome inhibition, 30 hours post-transfection cells would be replenished with DMEM containing either DMSO or 10 μM MG132 (Sigma-Aldrich) for 18 hours. Prior to harvesting, HEK293 cells were washed three times with ice-cold 1×PBS and imaged by fluorescent microscopy with a 20× objective using the Evos FL Auto Imaging System. Cells were then lysed with either 150 μl of ice-cold NETN (with protease inhibitor) or 1× Laemmli Buffer and sonicated twice for 5-8 seconds.
as §1, with “autophagy” for “proteasome”, “24” for “30”, “and treated with” for “containing”, “5 mM 3-Methyladenine” for “10 μM MG132”, “an additional 24” for “18”
For HEK293s′, slides were prepared by placing coverslips in 6-well plates and incubating with poly-L-lysine hydrobromide (Sigma-Aldrich) for an hour at room temperature. Coverslips were rinsed with 1×PBS three times prior to plating HEK293 cells. HEK293 cells were then transfected and fixed by incubation in 4% paraformaldehyde for 20 minutes at room temperature. Coverslips were mounted with ProLong Gold Antifade reagent and imaged with a 20× objective using the Evos FL Auto Imaging System or with a 40× objective using the Leica TCS SP5 Confocal Microscope System. For confocal, Z-stack images were obtained at […] intervals at 1024×1024 pixel resolution and merged using Fiji.
(§2) Following sonication, lysates were subjected to BCA protein assay (ThermoFisher Scientific) and prepared for loading by the addition of 4× laemmli buffer and boiling for four minutes. Samples then loaded on SDS-polyacrylamide gels, ran at 175 V, and transferred onto an Immuno-blot PVDF membrane (Biorad) overnight at 30 V. Membranes were blocked in 5% milk in TBS with 0.1% Tween (TBST) and incubated in primary antibody overnight at 4° C. Following primary, membranes were washed for 10 minutes at room temperature three times with TBST and incubated in secondary for an hour at room temperature. Membranes were then washed for 10 minutes at room temperature three times with TBST and then incubated in buffer for enhanced chemiluminescence (50 mM Na2HPO4; 50 mM Na2CO3; 10 mM NaBO3.4H2O; 250 mM luminol; 90 mM coumaric acid).
For HEK293 lysates, BCA protein assay was used to determine protein concentration. […]

^GFPHtt^ex1Q103 = format: cell-based, Dictyostelium discoideum; details: Dictyostelium
Method: (§3) For proteasome inhibition, 5×10^6 cells were incubated with either DMSO or 100 μM MG132 (Sigma-Aldrich) for 18 hours. Following treatment, cells were imaged and/or harvested by spinning at 500 g at room temperature for 5 minutes. Cell pellets were washed three times with 1×PBS and lysed with ice-cold NETN (with protease inhibitor). Lysates were then sonicated twice for 10-15 seconds. To verify inhibition, samples were run on SDS-PAGE and analyzed by western blot for ubiquitin.
For Hsp70 inhibition, 1×10^7 cells were incubated either with DMSO or 80 μM VER155008 (ApexBio) for 24 hours. Following treatments, cells were imaged and/or harvested by spinning at 500 g at room temperature for 5 minutes. Cell pellets were washed three times with 1×PBS and lysed with ice-cold NETN (with protease inhibitor). Lysates were then sonicated twice for 10-15 seconds. To verify inhibition, samples were run on SDS-PAGE and analyzed by western blot for ATG8.
For Dictyostelium cells, 1×10^7 cells were washed three times with ice-cold starvation buffer and then imaged with a 20× objective using the Evos FL Auto Imaging System.

ubiquitinated species = assay: Western blot for ubiquitin after proteasome inhibition in Dictyostelium; format: cell-based, Dictyostelium discoideum; details: increasing concentrations of MG132, 18 hours
Method: as §3, with “Following” for “For proteasome inhibition, 5×10^6 cells were incubated with either DMSO or 100 μM MG132 (Sigma-Aldrich) for 18 hours. Following”
as §2

ATG8 [1] = details: 150 mM NH4Cl, 8 hours
Method: For autophagy inhibition, 1×10^7 cells were incubated either with vehicle or 150 μM NH4Cl (Sigma-Aldrich) for 8 hours. Following treatments, cells were imaged by fluorescent microscopy and plated on coverslips at a density of 2×10^6 cells per ml and allowing cells to adhere. Cells were then washed three times with 1×PBS and fixed with 100% ice-cold methanol at −20° C. for 10 minutes. Methanol was aspirated and cells were washed twice with 1×PBT (0.1% Triton X, 0.5% BSA in 1×PBS), incubated in blocking buffer (1% Triton X, 2% BSA in 1×PBT) for 30 minutes at room temperature, and put in primary Rb anti ATG8a (courtesy of Jason King, University of Sheffield) (1:5000) overnight at 4° C. Following primary cells were washed three times with 1×PBT and incubated in secondary goat anti rabbit (Jackson ImmunoResearch Laboratories; 711-166-152) for 2 hours at room temperature. Following secondary, cells were washed an additional three times with 1×PBT and mounted on slides with ProLong Gold Antifade reagent (Invitrogen by ThermoFisher Scientific). Slides were imaged with a Nikon eclipse 90i confocal microscope.

ATG8 [2] = assay: Western blot for ATG8 after Hsp70 inhibition in Dictyostelium; format: cell-based, Dictyostelium discoideum; details: 80 μM Ver155008, 24 hours
Method: as §2, with “For Hsp70 inhibition, 1×10^7 cells were incubated either with DMSO or 80 μM VER155008 (ApexBio) for 24 hours. Following treatments, cells were imaged and/or harvested by spinning at 500 g at room temperature for 5 minutes. Cell pellets were washed three times with 1×PBS and lysed with ice-cold NETN (with protease inhibitor). Lysates were then sonicated twice for 10-15 seconds. To verify inhibition, samples were run on SDS-PAGE and analyzed by western blot for ATG8. Following sonication,” for “Following sonication,”

Htt^Q46 = target: T1, Htt^Q46 (Homo sapiens, UniProt P42858, INS38QQQQQQQQQQQQQQQQQQQQQQQQQ); assay: Thioflavin-T in vitro HttQ46 aggregation assay; format: biochemical; details: 3:1 peptide to HttQ46
T1 construct: Huntingtin exon-1 with 46 glutamines (Htt^Q46) in pET-32 was obtained from Addgene; pET-32 fusion tag (N, cleaved yes); host or cells: E. coli BL21
Method: Huntingtin exon-1 with 46 glutamines (Htt^Q46) in pET-32 was obtained from Addgene. Htt^Q46 was grown in BL21 cells at 37° C. to an optical density of 0.6 and induced with IPTG at 1 mM overnight at 16° C. After induction cells were spun down at 7,000 rpm for 5 minutes and resuspended in resuspension buffer (15 mM Tris-HCl buffer, pH 8.0). For lysis, lysozyme was added and cells were incubated at 4° C. for 45 minutes. To obtain soluble fraction, lysates were spun down at 12,000 rpm for 10 minutes, after which supernatant was added to 3 ml of Ni-beads (GoldBio) per 100 ml of lysate and tumbled for 4 hours at 4° C. Beads were then washed three times with resuspension buffer and then washed three more times with wash buffer (50 mM Tris-HCl pH 8.0, 150 mM NaCl, 1 mM PMSF, 1 mM EDTA). Protein was then eluted off beads by tumbling overnight at 4° C. in 25 mL of wash buffer with 250 mM imidazole.
Aggregation assays were performed as previously described in Kakkar, V. et al. Briefly, 15 μM Htt^46Q was mixed with 90 μM SRCP1 peptide (GenScript) (1:6, 1:3, 1:1.5) and 10 μM Thioflavin-T (Sigma-Aldrich). All samples were prepared on ice in buffer containing 20 mM Tris-HCl pH 8.0, 50 mM NaCl, 2 mM CaCl2). […] Fluorescence was measured with the excitation at 440 nm and emission at 480 nm, every 5 minutes using a Tecan Plate reader.

[3] = Solubility of SRCP1 peptide in vitro; format: physicochemical; details: data not shown
[4] = HEK293, 5 mM 3-MA for 24 hours, without SRCP1
[5] = HEK293, 10 μM MG132 for 18 hours, absence of RFPSRCP1

T1 sequence (P42858 with tags, fused parts or gaps with the stated changes): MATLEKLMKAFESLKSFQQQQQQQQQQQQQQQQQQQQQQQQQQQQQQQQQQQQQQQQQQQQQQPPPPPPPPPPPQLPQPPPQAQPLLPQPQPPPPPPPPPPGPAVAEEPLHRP

Molecule: Cn1cnc(N)c2ncnc1-2 [3-MA, 3-Methyladenine, reference compound]
aggregated GFPHttex1Q74 (^GFPHtt^ex1Q74; [4]): significant increase in soluble and aggregated
soluble GFPHttex1Q74 (^GFPHtt^ex1Q74; [4]): significant increase in soluble and aggregated

Molecule: CC(C)C[C@@H](C=O)NC(=O)[C@H](CC(C)C)NC(=O)[C@H](CC(C)C)NC(=O)OCc1ccccc1 [MG132, reference compound] (Cbz-Leu-Leu-Leu-aldehyde)
accumulation of aggregated GFPHttex1Q103 (^GFPHtt^ex1Q103; 100 μM MG132, 18 hours): does not result in an accumulation of aggregated
insoluble GFPHttex1Q74 (^GFPHtt^ex1Q74; [5]): increased in both the insoluble and soluble fraction
soluble GFPHttex1Q74 (^GFPHtt^ex1Q74; [5]): increased in both the insoluble and soluble fraction
accumulation of ubiquitinated species (ubiquitinated species): leads to an accumulation of ubiquitinated species

Molecule: Cl.N [NH4Cl]
accumulation of aggregated GFPHttex1Q103 (^GFPHtt^ex1Q103; 150 mM NH4Cl, 8 hours): does not lead to accumulation of aggregated
ATG8 puncta (ATG8 [1]): leads to an accumulation of large ATG8 puncta

Molecule: N#Cc1ccc(COC[C@H]2O[C@@H](n3c(NCc4ccc(Cl)c(Cl)c4)nc4c(N)ncnc43)[C@H](O)[C@@H]2O)cc1 [VER-155008]
accumulation of aggregated GFPHttex1Q103 (^GFPHtt^ex1Q103; 80 μM VER-155008, 24 hours): does not lead to accumulation of aggregated
ATG8 protein levels (ATG8 [2]): leads to an increase of ATG8 proteins levels

Molecule: LIWGVYGFIR [SEQ ID NO:5, peptide of SRCP1 amino acids 61-70]
HttQ46 aggregation in vitro, individual domain peptides (Htt^Q46): sufficient to suppress Htt^Q46 aggregation in vitro

solubility in vitro [3]: remained soluble in vitro
Molecule: LIWGVYGFIRGGVGLVKWRG [SEQ ID NO:9]

HttQ46 aggregation in vitro, individual domain peptides (Htt^Q46): loss in activity
Molecule: VI-A: SRCP1 61-70 peptide with amino acids V65 and I69 mutated to alanine (LIWGAYGFAR)

B1: ^RFPSRCP1^ST1: SRCP1 with all N-terminal serine and threonine residues mutated to alanine (protein)
chain: MAILAAFAAFANPPKLNKAAFAAAAGAALAMGANAFAWGGGWGGFGGPKGGSFNVDIAGNLIWGVYGFIRGGVGLVKWRGLQKGCKQP
modifications: left off: large carriers
notes: SRCP1 with all N-terminal serine and threonine residues mutated to alanine
ability of SRCP1 mutant to suppress GFPHttex1Q74 aggregation (^GFPHtt^ex1Q74): did not disrupt SRCP1's ability to suppress polyQ aggregation

B2: ^RFPSRCP1^71-80A: SRCP1 with amino acids 71-80 mutated to alanine (protein)
chain: MTILSTFTSFSNPPKLNKSSFSSSTGSSLSMGSNSFAWGGGWGGFGGPKGGSFNVDIAGNLIWGVYGFIRAAAAAAAAAALQKGCKQP
modifications: left off: large carriers
notes: SRCP1 with amino acids 71-80 mutated to alanine
ability of SRCP1 mutant to suppress GFPHttex1Q74 aggregation (^GFPHtt^ex1Q74): retained full activity

B3: ^RFPSRCP1^61-70A: SRCP1 with amino acids 61-70 mutated to alanine (protein)
chain: MTILSTFTSFSNPPKLNKSSFSSSTGSSLSMGSNSFAWGGGWGGFGGPKGGSFNVDIAGNAAAAAAAAAAGGVGLVKWRGLQKGCKQP
modifications: left off: large carriers
notes: SRCP1 with amino acids 61-70 mutated to alanine
ability of SRCP1 mutant to suppress GFPHttex1Q74 aggregation (^GFPHtt^ex1Q74): lost the ability to suppress

B4: ^RFPSRCP1^I69A: SRCP1 point mutant, I69 mutated to alanine (protein)
chain: B3 chain with A61L, A62I, A63W, A64G, A65V, A66Y, A67G, A68F, A70R
modifications: left off: large carriers
notes: SRCP1 point mutant, I69 mutated to alanine
ability of SRCP1 point mutant to suppress GFPHttex1Q74 aggregation (^GFPHtt^ex1Q74): resulted in a decrease in SRCP1 function

B5: ^RFPSRCP1^V65A: SRCP1 point mutant, V65 mutated to alanine (protein)
chain: B3 chain with A61L, A62I, A63W, A64G, A66Y, A67G, A68F, A69I, A70R
modifications: left off: large carriers
notes: SRCP1 point mutant, V65 mutated to alanine
ability of SRCP1 point mutant to suppress GFPHttex1Q74 aggregation (^GFPHtt^ex1Q74): resulted in a decrease in SRCP1 function

Source: US20200207835A1, “SRCP1-BASED THERAPY FOR DISEASES ASSOCIATED WITH PROTEIN AGGREGATION” (THE MEDICAL COLLEGE OF WISCONSIN, INC., priority 2017, published 2020)
